One may read the pKi as the negative decadic logarithm of the Ki, by convention in mol/L.

pKi: −log10 of the molar value.

For the assay, the target named is human α5β3γ2 receptors (α5-GABAA receptor) (Homo sapiens (Human), UniProt P18507+P31644). Briefly: 3H-flunitrazepam competition binding, human α5β3γ2 GABAA receptor. To be noted: HEK293 cell membranes, 1 nM 3H-flunitrazepam; read-out: α5-GABAAR Ki. As to the method:
The affinity of the compound to each subtype of GABAA receptor was determined by competing for the binding of ^3H-flunitrazepam to HEK293 cells stably expressing human α1β3γ2, α2β3γ2, α3β3γ2, and α5β3γ2 receptors.
The cells were suspended in 50 mM Tris-HCl buffer (pH=7.4), homogenized 10 times on ice with a homogenizer for 20 seconds, and centrifuged at 1000 g for 10 minutes at 4° C. The supernatant was collected, and the above steps were repeated. The supernatant was centrifuged at 4° C. (33800 g; Thermo, rotor: A27-8×50) for 60 minutes, and the precipitate was resuspended in Tris buffer (50 mM Tris-HCl, 10 mM MgCl2, 0.5 mM EDTA, 10% glycerol). Protein was measured (BCA method, Pierce), and 1 mL aliquots were prepared and stored at −80° C.
The radioligand competition binding assay was performed in a 200 μL system (96-well plate) containing 100 μL of cell membrane. The concentration of ^3H-flunitrazepam was 1 nM and the concentration of the test compound was in the range of […]. Flumazenil was used as a control. 1 μL of 2 mM flumazenil (final concentration […]) was added to the low signal control well (Low control, LC), and 1 μL of DMSO was added to the high signal control well (High control, HC). The final concentration of target membrane protein was […]. All test compound sample storage solutions were 10 mM. The working concentration of the samples was to dilute all the samples to 0.2 mM with DMSO, followed by 4-fold serial gradient dilutions for a total of 8 concentration gradients. The 96-well plate was sealed with a sealing film, and then incubated on a shaker at room temperature for 1 hour. At the same time, the GF/C filter plate was soaked in soaking buffer (0.3% PEI, stored at 4° C.) for at least 0.5 hours. After the binding incubation was completed, the cells were collected onto a GF/C filter plate using a cell harvester. The plate was washed four times with washing buffer (50 mM Tris-HCl, pH 7.4, stored at 4° C.). After drying in a 50° C. oven for 1 hour, the bottom of the dried GF/C filter plate was sealed. The residual radioactivity on the filter membrane was detected using liquid scintillation counting. 50 μL of scintillation fluid was added to each well, and the plate was sealed. The readings were taken using a Microbeta2. The inhibitory activity of the test sample on the binding of ^3H-flunitrazepam to GABAA receptor membrane proteins was calculated, and the IC50 of each test sample was calculated by dose-effect curve fitting (GraphPad Prism 5 software), and the Ki of the sample was calculated from the IC50, thus evaluating the binding ability of the sample to the various subtypes of GABAA receptors.
For “4-(6-((1-(4-(Difluoromethyl)phenyl)-4-methyl-1H-1,2,3-triazol-5-yl)methoxy)pyridin-3-yl)-1-methyl-1,4-diazepan-2-one [Example 17]”, the pKi was 8.36.

As to `Cc1nnn(-c2ccc(C(F)F)cc2)c1COc1ccc(N2CC[C@@H]3CCNC(=O)[C@@H]3C2)nn1` (relative stereo) [Example 123, cis-7-(6-((1-(4-(Difluoromethyl)phenyl)-4-methyl-1H-1,2,3-triazol-5-yl)methoxy)pyridazin-3-yl)octahydro-2,7-naphthyridin-1(2H)-one], the pKi was 8.14.

As to `Cc1nnn(-c2ccc(C(F)F)cc2)c1COc1ccc(N2CCN3CC(C(C)(C)C)NC(=O)[C@@H]3C2)nn1` (single isomer, unassigned) [Example 202], the negative logarithm of the Ki (pKi) was 8.63.

As for `Cc1nnn(-c2ccc(C(F)F)cc2)c1COc1ccc(N2CCN3CC(c4cnn(C)c4)NC(=O)[C@@H]3C2)nn1` (single isomer, unassigned) [Example 211], the negative logarithm of the Ki (pKi) was 8.69.

Consider `COC1CCN(c2ccc(OCc3c(C)nnn3-c3ccc(C(F)F)cc3)nn2)C1` (stereo not drawn) [Example 1, 3-((1-(4-(Difluoromethyl)phenyl)-4-methyl-1H-1,2,3-triazol-5-yl)methoxy)-6-(3-methoxypyrrolidin-1-yl)pyridazine], for which the pKi is 8.70.

As to `Cc1nnn(-c2ccc(C(F)F)cc2)c1COc1ccc(N2CCCNC(=O)C2)nn1` [Example 4, 4-(6-((1-(4-(Difluoromethyl)phenyl)-4-methyl-1H-1,2,3-triazol-5-yl)methoxy)pyridazin-3-yl)-1,4-diazepan-2-one], the pKi is 8.14.

`Cc1nnn(-c2ccc(C(F)F)cc2)c1COc1ccc(N2CCN3C(=O)COC[C@@H]3C2)nn1` [Example 9, (S)-8-(6-((1-(4-(Difluoromethyl)phenyl)-4-methyl-1H-1,2,3-triazol-5-yl)methoxy)pyridazin-3-yl)hexahydropyrazino[2,1-c][1,4]oxazin-4(3H)-one]: the negative logarithm of the Ki (pKi) was 8.84.

In the case of `Cc1nnn(-c2ccc(C(F)F)cc2)c1COc1ccc(N2CCNC(C)(C)C2=O)nn1` [Example 10, 1-(6-((1-(4-(Difluoromethyl)phenyl)-4-methyl-1H-1,2,3-triazol-5-yl)methoxy)pyridazin-3-yl)-3,3-dimethylpiperazin-2-one], the pKi was 7.84.

For `Cc1nnn(-c2ccc(C(F)F)cc2)c1COc1ccc(N2CCC(N(C)C)C2)nn1` (stereo not drawn) [Example 12, 1-(6-((1-(4-(Difluoromethyl)phenyl)-4-methyl-1H-1,2,3-triazol-5-yl)methoxy)pyridazin-3-yl)-N,N-dimethylpyrrolidin-3-amine], the pKi was 9.05.

Consider `Cc1nnn(-c2ccc(C(F)F)cc2)c1COc1ccc(N2C(=O)NC(C)(C)C2=O)nn1` [Example 25, 3-(6-((1-(4-(Difluoromethyl)phenyl)-4-methyl-1H-1,2,3-triazol-5-yl)methoxy)pyridazin-3-yl)-5,5-dimethylimidazolidine-2,4-dione], for which the pKi was 7.61.

Consider `Cc1nnn(-c2ccc(C(F)F)cc2)c1COc1ccc(N2CCN[C@H](C(=O)N(C)C)C2)nn1` [Example 31, (S)-4-(6-((1-(4-(Difluoromethyl)phenyl)-4-methyl-1H-1,2,3-triazol-5-yl)methoxy)pyridazin-3-yl)-N,N-dimethylpiperazine-2-carboxamide], for which the pKi is 8.13.

As for `Cc1nnn(-c2ccc(C(F)F)cc2)c1COc1ccc(N2CCN[C@H](C(N)=O)C2)nn1` [Example 32, (S)-4-(6-((1-(4-(Difluoromethyl)phenyl)-4-methyl-1H-1,2,3-triazol-5-yl)methoxy)pyridazin-3-yl)piperazine-2-amide], the pKi is 8.53.

For the compound `Cc1nnn(-c2ccc(C(F)F)cc2)c1COc1ccc(N2CCN[C@H](C#N)C2)nn1` [Example 33, (S)-4-(6-((1-(4-(Difluoromethyl)phenyl)-4-methyl-1H-1,2,3-triazol-5-yl)methoxy)pyridazin-3-yl)piperazine-2-carbonitrile], the pKi is 8.48.

With `CNC(=O)[C@@H]1CN(c2ccc(OCc3c(C)nnn3-c3ccc(C(F)F)cc3)nn2)CCO1` [Example 38, (S)-4-(6-((1-(4-(Difluoromethyl)phenyl)-4-methyl-1H-1,2,3-triazol-5-yl)methoxy)pyridazin-3-yl)-N-methylmorpholine-2-carboxamide], the negative-log Ki (pKi) was 8.61.

Take `CCNC(=O)C1C2CN(c3ccc(OCc4c(C)nnn4-c4ccc(C(F)F)cc4)nn3)CC21` (stereo not drawn) [Example 39, 3-(6-((1-(4-(Difluoromethyl)phenyl)-4-methyl-1H-1,2,3-triazol-5-yl)methoxy)pyridazin-3-yl)-N-ethyl-3-azabicyclo[3.1.0]hexane-6-carboxamide]: the pKi is 8.80.

On to `CCNC(=O)[C@H]1CCN1c1ccc(OCc2c(C)nnn2-c2ccc(C(F)F)cc2)nn1` [Example 40], for which the negative logarithm of the Ki (pKi) was 7.47.

Take `CCNC(=O)[C@H]1CCCN1c1ccc(OCc2c(C)nnn2-c2ccc(C(F)F)cc2)nn1` [Example 41, (R)-1-(6-((1-(4-(Difluoromethyl)phenyl)-4-methyl-1H-1,2,3-triazol-5-yl)methoxy)pyridazin-3-yl)-N-ethylpyrrolidine-2-carboxamide]: the pKi was 7.37.

On to `CCNC(=O)[C@@H]1CCCN1c1ccc(OCc2c(C)nnn2-c2ccc(C(F)F)cc2)nn1` [Example 42, (S)-1-(6-((1-(4-(Difluoromethyl)phenyl)-4-methyl-1H-1,2,3-triazol-5-yl)methoxy)pyridazin-3-yl)-N-ethylpyrrolidine-2-carboxamide], for which the pKi was 6.94.

Consider `Cc1nnn(-c2ccc(C(F)F)cc2)c1COc1ccc(N2CC(C(=O)Nc3ccccc3)C2)nn1` [Example 47, 1-(6-((1-(4-(Difluoromethyl)phenyl)-4-methyl-1H-1,2,3-triazol-5-yl)methoxy)pyridazin-3-yl)-N-phenylazetidine-3-carboxamide], for which the pKi was 8.96.

With `Cc1nnn(-c2ccc(C(F)F)cc2)c1COc1ccc(N2CC(C(=O)NCc3ccccc3)C2)nn1` [Example 48, N-Benzyl-1-(6-((1-(4-(difluoromethyl)phenyl)-4-methyl-1H-1,2,3-triazol-5-yl)methoxy)pyridazin-3-yl)azetidine-3-carboxamide], the pKi was 8.62.

Regarding `COCCNC(=O)C1CN(c2ccc(OCc3c(C)nnn3-c3ccc(C(F)F)cc3)nn2)C1` [Example 49, 1-(6-((1-(4-(Difluoromethyl)phenyl)-4-methyl-1H-1,2,3-triazol-5-yl)methoxy)pyridazin-3-yl)-N-(2-methoxyethyl)azetidine-3-carboxamide], the pKi was 8.19.

Consider `Cc1nnn(-c2ccc(C(F)F)cc2)c1COc1ccc(N2CC(C(=O)NC3CCOC3)C2)nn1` (stereo not drawn) [Example 51, 1-(6-((1-(4-(Difluoromethyl)phenyl)-4-methyl-1H-1,2,3-triazol-5-yl)methoxy)pyridazin-3-yl)-N-(tetrahydrofuran-3-yl)azetidine-3-carboxamide], for which the pKi is 8.21.

With `Cc1nnc(C2CN(c3ccc(OCc4c(C)nnn4-c4ccc(C(F)F)cc4)nn3)C2)o1` [Example 53, 2-(1-(6-((1-(4-(Difluoromethyl)phenyl)-4-methyl-1H-1,2,3-triazol-5-yl)methoxy)pyridazin-3-yl)azetidin-3-yl)-5-methyl-1,3,4-oxadiazole], the negative logarithm of the Ki (pKi) is 8.53.

Regarding `CCNC(=O)CC1CN(c2ccc(OCc3c(C)nnn3-c3ccc(C(F)F)cc3)nn2)CCO1` (stereo not drawn) [Example 63, 2-(4-(6-((1-(4-(Difluoromethyl)phenyl)-4-methyl-1H-1,2,3-triazol-5-yl)methoxy)pyridazin-3-yl)morpholin-2-yl)-N-ethylacetamide], the negative-log Ki (pKi) was 8.83.

Consider `Cc1nnn(-c2ccc(C(F)F)cc2)c1COc1ccc(N2CCNCC2=O)nn1` [Example 71, 1-(6-((1-(4-(Difluoromethyl)phenyl)-4-methyl-1H-1,2,3-triazol-5-yl)methoxy)pyridazin-3-yl)piperazin-one], for which the pKi was 8.05.

`Cc1nnn(-c2ccc(Cl)cn2)c1COc1ccc(N2CCNC(=O)C2)nn1` [Example 72, 4-(6-((1-(5-Chloropyridin-2-yl)-4-methyl-1H-1,2,3-triazol-5-yl)methoxy)pyridazin-3-yl)piperazin-2-one]: the pKi was 9.34.

As for `Cc1nnn(-c2ccc(C(F)F)nc2)c1COc1ccc(N2CCNC(=O)C2)nn1` [Example 74, 4-(6-((1-(6-(Difluoromethyl)pyridin-3-yl)-4-methyl-1H-1,2,3-triazol-5-yl)methoxy)pyridazin-3-yl)piperazin-2-one], the pKi was 7.63.

Source of the values: patent publication US20250136581A1, “SUBSTITUTED TRIAZOLE DERIVATIVE, PREPARATION METHOD THEREFOR, PHARMACEUTICAL COMPOSITION THEREOF, AND USE THEREOF” (SHANGHAI SIMR BIOTECHNOLOGY CO., LTD., priority 2021, published 2025).
